Assay results as given in US20240208950A1, “COMPOSITIONS AND METHODS FOR TREATMENT OF CERVICAL AND OVARIAN CANCER” (SOUTH DAKOTA BOARD OF REGENTS, priority 2021, published 2024).

Test system: ovarian cancer cell line A2780
Assay: MTT cell viable assay (cytotoxicity and anti-proliferation)
Type: cell-based
Conditions: Homo sapiens
Experimental: A biological assay was performed to study the potency of ORM-analogs by observing their pharmaceutical effects on living tissue (in vitro) and the effects of these analogs of unknown potency were compared to the effects of the standard (ormeloxifene). An MTT cell viable assay was first conducted to measure the cytotoxicity and anti-proliferation activity of synthesized analogs (Table 2 and FIG. 2).

## COc1ccc2c(c1)OC(C)(C)C(c1ccccc1)C2c1ccc(OCCN2CCCC2)cc1 (stereo not shown) [Ormeloxifene, reference compound]
  IC50: 17.5 µM
